Among the data in ChEMBL document CHEMBL5620374, “Synthesis and bioevaluation of novel stilbene-based derivatives as tubulin/HDAC dual-target inhibitors with potent antitumor activities in vitro and in vivo” (Eur J Med Chem, 2023) are Activity values, retold here.

This assay relates to K562. Put plainly: Induction of apoptosis in human K562 cells assessed as decrease in Bcl-xL level incubated for 24 hrs by Western blot analysis. Type of assay: functional, cell-based. The conditions noted are these: dose 2-8 nM.

For the compound `C=C(c1ccc(OC)c(OC(F)C(=O)NO)c1)c1cc(C)nc2ccccc12` (stereo unspecified), the Activity entry is “Dose-Dependent Effect”.
